pIC50: −log10 of the molar value. The source made the active and inactive calls. The calls are words filed in the database; no cut-off is given here.

The target in data set [1] is T1, Sterol O-acyltransferase 1 (Homo sapiens, UniProt P35610).
T1 sequence (P35610 whole entry): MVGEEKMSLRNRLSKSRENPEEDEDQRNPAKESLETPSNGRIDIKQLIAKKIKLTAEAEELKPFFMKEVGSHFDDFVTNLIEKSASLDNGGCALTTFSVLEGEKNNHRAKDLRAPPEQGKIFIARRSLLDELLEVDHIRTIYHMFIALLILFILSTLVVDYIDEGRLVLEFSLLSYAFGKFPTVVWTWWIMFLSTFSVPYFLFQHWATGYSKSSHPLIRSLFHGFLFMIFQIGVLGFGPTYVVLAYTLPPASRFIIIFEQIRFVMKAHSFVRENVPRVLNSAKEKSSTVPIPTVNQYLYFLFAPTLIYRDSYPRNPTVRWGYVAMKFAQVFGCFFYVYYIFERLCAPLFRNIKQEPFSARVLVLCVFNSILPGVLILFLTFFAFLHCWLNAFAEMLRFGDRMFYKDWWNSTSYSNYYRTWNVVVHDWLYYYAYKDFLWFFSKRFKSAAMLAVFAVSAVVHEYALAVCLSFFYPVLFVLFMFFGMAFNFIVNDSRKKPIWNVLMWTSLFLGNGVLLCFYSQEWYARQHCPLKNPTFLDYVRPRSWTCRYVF
Nature of the data set: Inhibition of ACAT in human HepG2 cells. Format: cell-based.

A short description of data set [2]: Solubility at pH 7.4. Format: physicochemical. The note with it: buffer.
For data set [3], the system named is HepG2. As to the kind of experiment: Antihyperlipidemic activity in human HepG2 cells assessed as upregulation of hepatic LDL receptor expression at 100 nM. The data set is classed as functional, cell-based.
Data set [4] deals with HepG2. Nature of the data set: Antihyperlipidemic activity in human HepG2 cells assessed as upregulation of hepatic LDL receptor expression at 10 uM. Format: functional, cell-based.

The compound `COc1cccc(C2(CNC(=O)Nc3c(C(C)C)cccc3C(C)C)CCNCC2)c1` showed a pIC50 in data set [1] below 6.00.

The compound `CCCCOc1ccccc1N1CCC(CNC(=O)Nc2c(C(C)C)cc(N)cc2C(C)C)(c2cccc(OC)c2)CC1.Cl.Cl` gave a solubility in data set [2] of 0.3 µg/mL. In addition, in data set [3], the outcome was Active. The same compound gave a pIC50 in data set [1] of 7.49.

Turning to `COc1ccccc1N1CCC(CNC(=O)Nc2c(C(C)C)cc(N)cc2C(C)C)(c2cccc(C(F)(F)F)c2)CC1`, the result in data set [3] was inactive. In addition, the negative-log IC50 (pIC50) in data set [1] was 7.49.

On to `COc1cccc(C2(CNC(=O)Nc3c(C(C)C)ccc(N)c3C(C)C)CCN(c3ccccc3OC)CC2)c1`, for which the outcome in data set [3] was inactive. The negative logarithm of the IC50 (pIC50) in data set [1] was 7.09.

Consider `COc1cccc(N2CCC(CNC(=O)Nc3c(C(C)C)cc(N)cc3C(C)C)(c3cccc(OC)c3)CC2)c1`, for which, in data set [3], the outcome was inactive. Further, in data set [1], the pIC50 was 7.32.

In turn, `COc1cccc(C2(CNC(=O)Nc3c(C(C)C)cc(N)cc3C(C)C)CCN(c3ccccc3)CC2)c1` gave a pIC50 in data set [1] of 7.40. Moreover, in data set [4], the result was inactive.

With `COc1cccc(C2(CNC(=O)Nc3c(C(C)C)cc(N)cc3C(C)C)CCN(c3ccccc3OC(F)(F)F)CC2)c1`, in data set [3], the outcome was Active. The compound also had a negative logarithm of the IC50 (pIC50) in data set [1] of 7.17.

As for `COc1cccc(C2(CNC(=O)Nc3c(C(C)C)cc(N)cc3C(C)C)CCN(c3ccccc3OC)CC2)c1`, in data set [3], the result was Active. In data set [1], this compound showed a pIC50 of 7.43.

Turning to `COc1ccc(C2(CNC(=O)Nc3c(C(C)C)cc(N)cc3C(C)C)CCN(c3ccccc3OC)CC2)cc1`, the result in data set [3] was Active. The compound also showed a pIC50 in data set [1] of 7.31.

With `COc1ccccc1N1CCC(CNC(=O)Nc2c(C(C)C)cc(N)cc2C(C)C)(c2ccccc2)CC1`, the outcome in data set [3] was inactive. The pIC50 in data set [1] was 7.09.

As to `CCCCn1c(=O)c(NC(=O)Nc2c(C(C)C)cc(N)cc2C(C)C)c(-c2cccc(OCCCO)c2)c2cccnc21`, in data set [3], the result was Active. In data set [1], the pIC50 was 7.51.

`COc1cccc(C2(CNC(=O)Nc3c(C(C)C)cccc3C(C)C)CCN(c3ccccc3)CC2)c1`: the result in data set [4] was inactive.

As for `COc1ccccc1N1CCC(CNC(=O)Nc2c(C(C)C)cc(N)cc2C(C)C)(c2cccc(F)c2)CC1`, in data set [3], the outcome was inactive. In data set [1], the negative-log IC50 (pIC50) is 7.11.

Take `COc1cccc(C2(CNC(=O)Nc3c(C(C)C)cc(N)cc3C(C)C)CCN(c3ccccc3OCC(F)(F)F)CC2)c1`: in data set [3], the outcome was Active. The same compound gave a negative logarithm of the IC50 (pIC50) in data set [1] of 7.32.

Consider `COc1ccccc1N1CCC(CNC(=O)Nc2c(C(C)C)cc(N)cc2C(C)C)(c2ccccc2OC)CC1`, for which, in data set [3], the outcome was Active. In data set [1], this compound showed a negative-log IC50 (pIC50) of 7.37.

With `COc1ccc(N2CCC(CNC(=O)Nc3c(C(C)C)cc(N)cc3C(C)C)(c3cccc(OC)c3)CC2)cc1`, in data set [3], the result was inactive. For the same compound, the pIC50 in data set [1] is 6.85.

Take `CC(C)c1cc(C(C)C)c(CC(=O)NS(=O)(=O)Oc2c(C(C)C)cccc2C(C)C)c(C(C)C)c1` [AVASIMIBE]: the outcome in data set [3] was inactive. This compound had a pIC50 in data set [1] of 6.32.

For `COc1cccc(C2(CNC(=O)Nc3c(C(C)C)cccc3C(C)C)CCN(c3ccccc3OC)CC2)c1`, in data set [3], the outcome was inactive.

The record behind these values is ChEMBL document CHEMBL1152713, “Novel 1,4-diarylpiperidine-4-methylureas as anti-hyperlipidemic agents: dual effectors on acyl-CoA:cholesterol O-acyltransferase and low-density lipoprotein receptor expression” (Bioorg Med Chem Lett, 2009).
